Laboratory results from patent publication US10759740B2, “Antibacterial agents” (Rutgers, The State University of New Jersey, priority 2016, dated 2020).

Experiments:
[1] = tested on: Human foreskin fibroblast (HFF) cells; type: cell-based; details: for IC50: Table 2 of Example 1, cytotoxicity IC50 of CAms
Experimental: HFFs were cultured in DMEM supplemented with 10% fetal bovine serum, 1% penicillin/streptomycin and plated at a concentration of 10,000 cells/well in 96-well plate. Plates were incubated at 37° C. and 5% CO2 for 24 h to allow cell attachment prior to use.
CAMs were tested for cytotoxicity against HFFs using a tetrazolium-based colorimetric assay (MTT). CAMs were first dissolved in ddH2O and then diluted in cell medium (DMEM supplemented with 1% penicillin/streptomycin) to reach concentrations of 15.6, 3.9, and 0.95 μg/mL. 100 μL cell media containing CAMs were then added to allocated wells in a 96-well plate. Cells treated with only 1% Triton X-100 and cell medium were used as positive and negative controls, respectively. After 24 h incubation, the medium was removed and replaced with fresh medium. 20 μL of MTT reagent (12 mM in PBS) was then added to each well and further incubated for 4 h at 37° C. Formazan crystals were subsequently dissolved in 100 μL acidified SDS solution at 37° C. for 4 h. […] The following is used to calculate the percent of cell viability of HFFs: […]

[2] = tested on: Lactobacillus gasseri ATCC 33323; assay: MIC broth microdilution (Example 3); type: cell-based; details: planktonic
Experimental: (§1) G. vaginalis ATCC 14019 strain was grown overnight in Brain Heart Infusion broth (Difco, Sparks, Md.) supplemented with 3% horse serum (sBHI) (JRH Biosciences, KS), while BHI supplemented with 1% glucose (BHIG) was used for biofilm formation assays. Each experiment using G. vaginalis was performed anaerobically (10% hydrogen, 5% carbon dioxide, and 85% nitrogen) within anaerobic glove boxes (Coy Laboratory Products, Inc., Grass Lake, Mich., USA). Three species of vaginal Lactobacillus were used in this study to evaluate the possible harmful effects of CAms on beneficial bacteria: Lactobacillus plantarum ATCC 39268, Lactobacillus rhamnosus 160 (provided by Dr. Aroutcheva, Rush University Medical Center) and Lactobacillus gasseri ATCC 33323; all were grown for 18-24 h in DeMan, Rogosa and Sharpe broth (MRS Difco B D, Franklin Lakes, N.J., USA) under aerobic conditions at 37° C. For lactobacilli biofilm formation, MRS broth supplemented with 1% glucose and 2% sucrose (Fisher Scientific, Waltham, Mass., USA) was utilized.
(§2) To prepare a stock solution, the CAm compounds were dissolved in ddH2O and incubated at 37° C. with shaking at 250 rpm for 10 min. Then, the solution was serially diluted twofold with sBHI broth to determine the MIC and with BHIG broth to identify the MIC-B/MBC-B against planktonic and biofilm cells, respectively.
(§3) According to Clinical and Laboratory Standards Institute (CLSI 2010), the MIC is defined as the lowest concentration of antimicrobial compound producing no visible growth or complete inhibition of bacterial growth during 24 h. To determine MIC values, the broth microdilution assay was performed according to Algburi et al. (Algburi et al., 2015. Path Dis 73(5)) with minor modifications. Briefly, the overnight-grown cells were diluted with their suitable culture medium to approach ˜10^6 CFU/ml. The number of bacterial cells was identified using spot plate method (Turovskiy et al., 2012. Infect Dis Obstet Gynecol 2012:284762). The CAms were serially diluted twofold with sBHI into a non-tissue culture 96-well microplate plate (Falcon, Corning Incorporated, Corning, N.Y., USA) resulting in a final volume of 100 μl for each well. Aliquots of 100 μl of the diluted cell suspension (˜10^6 CFU/ml) were added to each well of a microplate that was treated with different concentrations of CAms. To avoid culture medium evaporation, 75 μl of mineral oil (Sigma-Aldrich, St. Louis, Mo.) was added to each treated well. The microplate was then transferred to the plate reader (Model 550, Bio-Rad Laboratories, Hercules, Calif., USA) and incubated at 37° C. for 24-36 h. The kinetic reading was statistically analyzed, and the MIC and sub-MIC of each CAm compound were determined.

[3] = tested on: Lactobacillus plantarum ATCC 39268; assay: MIC broth microdilution (Example 3); type: cell-based; details: planktonic
Experimental: as §1, §2, §3

[4] = tested on: Lactobacillus rhamnosus 160; assay: MIC broth microdilution (Example 3); type: cell-based; details: planktonic
Experimental: as §1, §2, §3

[5] = tested on: G. vaginalis pre-formed biofilm; assay: Minimum biofilm bactericidal concentration (MBC-B); type: cell-based, Gardnerella vaginalis; details: 24 h, ≥3 log reduction
Experimental: This assay was performed according to Algburi et al. (Algburi et al., 2015. Path Dis 73(5)) with minor modifications: the overnight-grown G. vaginalis was diluted to approximately 10^7 CFU/ml. For the biofilm formation assay, aliquots of 200 μl were added into a 96-well tissue culture microplate, sealed by amplification tape (Nalge Nunc International, Rochester, N.Y., USA) and incubated for 24-36 h at 37° C. After incubation, the planktonic cells were removed by gently washing the biofilm twice with 200 μl of fresh broth. The biofilm was then treated with 200 μl of a predetermined concentration of the tested compound. The microplate was incubated for 24 h at 37° C. under anaerobic conditions. After incubation, the antimicrobials (supernatant) were discarded and the biofilm was washed twice with fresh BHIG broth. The biofilm was then disrupted by vigorous pipetting, in order to determine the number of biofilm-associated cells using the spot plate method.

| Compound | cytotoxicity to human fibroblasts (MTT cell viability) [1] | IC50 [1] | MIC L. gasseri [2] | MIC L. plantarum [3] | MIC L. rhamnosus [4] | MBC-B G. vaginalis [5] |
| --- | --- | --- | --- | --- | --- | --- |
| CCCCCCCCCCOC(C(=O)NCCN)C(OCCCCCCCCCC)C(=O)NCCN.Cl.Cl (centres unmarked) [5b] | did not produce pronounced cytotoxicity | 5.6 µg/mL | 4.4 µM | 25.7 µM | 13.3 µM | 425.6 µM |
| CCCCCCCC(=O)OC(C(=O)NCCN)C(OC(=O)CCCCCCC)C(=O)NCCN.Cl.Cl (centres unmarked) [8a] |  | 55.6 µg/mL | 55.9 µM | 223 µM | 111.6 µM | 117.6 µM |
| CCCCCCCCCC(=O)OC(C(=O)NCCN)C(OC(=O)CCCCCCCCC)C(=O)NCCN.Cl.Cl (centres unmarked) [8b] | did not produce pronounced cytotoxicity | 13.9 µg/mL | 12.7 µM | 33.3 µM | 12.7 µM | 425.6 µM |
